Laboratory results reported in ChEMBL document CHEMBL5634192, “Transforming Therapeutic Approaches with PROTAC Technology: New Targets and Potentials” (ACS Med Chem Lett, 2024).

Key:
[1] = target: T1, von Hippel-Lindau disease tumor suppressor/Interleukin-1 receptor-associated kinase 4 (Homo sapiens, UniProt Q9NWZ3+P40337); assay: PROTAC activity at VHL E3 ligase/IRAK4 in human PBMC cells assessed as induction of degradation of IRAK4 incubated overnight by ELISA method; format: cell-based
[2] = target: T1, von Hippel-Lindau disease tumor suppressor/Interleukin-1 receptor-associated kinase 4; assay: PROTAC activity at VHL E3 ligase/IRAK4 in human PBMC cells assessed as induction of degradation of IRAK4 incubated overnight by ELISA method relative to control; format: cell-based
Target sequence in this assay (P40337 whole entry, looked up): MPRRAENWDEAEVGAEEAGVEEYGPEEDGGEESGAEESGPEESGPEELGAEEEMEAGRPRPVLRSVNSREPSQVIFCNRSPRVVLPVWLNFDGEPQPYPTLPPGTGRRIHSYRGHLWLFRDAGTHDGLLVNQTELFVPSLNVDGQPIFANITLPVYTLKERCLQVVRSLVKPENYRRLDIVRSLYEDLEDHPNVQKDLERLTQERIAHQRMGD
Target sequence in this assay (Q9NWZ3 whole entry, looked up): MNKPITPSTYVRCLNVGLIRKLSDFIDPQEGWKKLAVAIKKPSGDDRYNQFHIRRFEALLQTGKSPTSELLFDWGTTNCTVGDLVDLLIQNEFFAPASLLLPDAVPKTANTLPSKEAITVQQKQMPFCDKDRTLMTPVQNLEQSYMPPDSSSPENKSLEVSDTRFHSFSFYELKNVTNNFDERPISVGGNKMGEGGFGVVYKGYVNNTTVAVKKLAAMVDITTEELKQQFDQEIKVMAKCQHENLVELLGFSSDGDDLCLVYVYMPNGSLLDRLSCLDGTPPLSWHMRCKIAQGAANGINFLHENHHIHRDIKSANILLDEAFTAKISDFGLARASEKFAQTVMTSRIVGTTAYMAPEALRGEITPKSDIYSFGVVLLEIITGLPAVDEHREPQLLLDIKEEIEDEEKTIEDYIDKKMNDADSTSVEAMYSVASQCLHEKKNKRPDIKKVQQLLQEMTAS

DC50 [1]	EC90 [1]	Emax [2]	Structure (SMILES)
< 1 nM	< 10 nM	> 90%	O=C1CCC(c2ccc(N3CCC4(CCC(CN5CCC(n6cc7cc(NC(=O)c8cnn9cccnc89)c(OCC8CC8)cc7n6)CC5)CC4)CC3)cc2F)C(=O)N1 (centres undefined)
< 1 nM	< 10 nM	> 90%	O=C1CCC(c2ccc(N3CC(F)(CN4CCC(n5cc6cc(NC(=O)c7cnn8cccnc78)c(N7CCC(N8CCC8)CC7)cc6n5)CC4)C3)cc2F)C(=O)N1 (centres undefined)
1 nM	< 10 nM	> 90%	CC(C)Oc1cc2c(cc1NC(=O)c1cnn3cccnc13)CN(C1CCN(CC3CCN(c4ccc(C5CCC(=O)NC5=O)cc4)CC3)CC1)C2=O (centres undefined)
< 1 nM	< 10 nM	> 90%	CC(C)Oc1cc2c(cc1NC(=O)c1cnn3cccnc13)CN(C1CCN(CC3CCN(c4ccc(C5CCC(=O)NC5=O)c(F)c4)CC3)CC1)C2=O (centres undefined)
< 1 nM	< 10 nM	> 90%	CC(C)Oc1cc2c(cc1NC(=O)c1cnn3cccnc13)CN(C1CCN(CC3CCN(c4ccc(C5CCC(=O)NC5=O)cn4)CC3)CC1)C2=O (centres undefined)
< 1 nM	< 10 nM	> 90%	O=C1CCC(c2ccc(N3CC(F)(CN4CCC(n5cc6cc(NC(=O)c7cnn8cccnc78)c(OCC7CC7)cc6n5)CC4)C3)cc2F)C(=O)N1 (centres undefined)
< 1 nM	< 10 nM	> 90%	CC(C)Oc1nc2c(cc1NC(=O)c1cnn3cccnc13)CN(C1CCN(CC3CCN(c4ccc(C5CCC(=O)NC5=O)c(F)c4)CC3)CC1)C2=O (centres undefined)
1 nM	< 10 nM	> 90%	O=C1CCC(c2ccc(N3CCC4(CC3)CC(CN3CCC(n5cc6cc(NC(=O)c7cnn8cccnc78)c(OCC7CC7)cc6n5)CC3)C4)cc2F)C(=O)N1 (centres undefined)
